From US6403581B1, “Method of inhibition of farnesyl-protein transferase using substituted benz (cd) indol-2-imine and-amine derivatives” (American Cyanamid Company, priority 2000, dated 2002) come the findings set out here.

pIC50: −log10 of the molar value. Structures can show the parent of a compound that is named as a salt.

Data set [1] has as its target T1, farnesyl-protein transferase (FPTase) (Homo sapiens, UniProt P49354+P49356). Nature of the data set: in vitro FPTase inhibition, H-Ras as substrate for farnesylation. It is filed as biochemical. The settings on record: H-Ras used as substrate for farnesylation. As for the experimental part: (§1) Enzyme test procedure: The FPTase inhibition in vitro assay was performed according to the method as described by James, G. L., Brown, M. S., and Goldstein, J. L., Methods in Enzymology, 1995, 255, 38-46; and Garcia, M. A., et al., J. Biol. Chem., 1993, 268, 18415-18420.
(§2) Materials—Purified FPTase (Moomaw, J. F. and Casey, P. J., J. Biol. Chem., 1992, 267, 17438-17443), purified His6-Ras, inhibitor compounds at 10 mg/ml or 10 mM in 100% DMSO, ^3H-FPP (50,000 dpm/pmol) Amersham, TCA/SDS (6%/2%), TCA (6%), Glass fiber filters ([…]), vacuum manifold or 96 well filtration plates.
(§3) Methods—1. Dilute FPTase inhibitors from stock solutions to 2.5× in 2.5% DMSO, 10 mM DTT, 0.5% octyl-B-glucoside. 2. Solution #1 is added to FPTase reaction in a volume of […]. 3. Standard reaction mix, […], contains 50 mM Tris (7.5),[…], 3 mM MgCl2, 20 mM KCl, 5 mM DTT, 0.2% octyl-B-glucoside, 1% DMSO, […], 10 ng FPTase, and various concentrations of FPTase inhibitors. 4. Incubate for 30-90 min at 25° C. 5. Stop reactions with TCA/SDS (6%/2%), hold at 4° C. for 45-60 min. 6. Filter by manifold or 96 well plate, wash filter 3-5× with TCA (6%). 7. Add scintillant to filters, measure ^3H-FPP incorporation into Ras protein.
(§4) Analysis of Results—Percent inhibition by test compounds is determined by the following:
(§5) (cpm from precipitated Ras with test compounds)−(background cpm)×100=% inhibition.
(§6) (cpm from precipitated Ras without test compounds)−(background cpm)

Data set [2] deals with T1, farnesyl-protein transferase (FPTase). Nature of the data set: in vitro FPTase inhibition, K-Ras as substrate for farnesylation. The following applies: K-Ras used as substrate for farnesylation. The format is biochemical. Here is the method: as §1, §2, §3, §4, §5, §6

As a reminder, the pIC50 is the negative decadic logarithm of the IC50, by convention in mol/L. Low readings indicate a high IC50, high ones a low IC50. A word on the melting point: it is the temperature, or range, at which the solid turns liquid.

Take `Clc1ccc2c3c(cccc13)C(=NCCc1cccnc1)N2Cc1ccccc1` [Example 19, N-[6-Chloro-1-(phenylmethyl)benz[cd]indol-2(1H)-ylidene]-3-pyridinethanamine]: the results for the pIC50 in data set [1] and in data set [2] were 7.00 and below 5.00, respectively.

For the molecule `c1ccc(CCCN2C(=NCCCn3ccnc3)c3cccc4cccc2c34)cc1` [Example 11, N-[1-(3-Phenylpropyl)benz[cd]indol-2(1H)-ylidene]-1H-imidazole-1-propanamine, Fumarate (1:2)], the negative logarithm of the IC50 (pIC50) is 6.22 in data set [1] and 5.02 in data set [2].

For the molecule `CCCCCCN1C(=NCCCn2ccnc2)c2cccc3cccc1c23` [Example 7, N-(1-Hexylbenz[cd]indol-2(1H)-ylidene)-1H-imidazole-1-propanamine, Fumarate (1:2)], the values for the pIC50 in data set [1] and in data set [2] were 5.74 and below 5.00, respectively. Molecule `Ic1ccc2c3c(cccc13)C(=NCCCn1ccnc1)N2` [Example 21, 3-(1H-Imidazol-1-yl)-N-(6-iodobenzo[cd]indol-2(1H)-ylidene)-1-propanamine] registered a melting point of 185 to 188 °C. For the molecule `Clc1ccc(CN2C(=NCCCn3ccnc3)c3cccc4cccc2c34)cc1` [Example 15, N-[1-[(4-Chlorophenyl)methyl]benz[cd]indol-2(1H)-ylidene]-1H-imidazole-1-propanamine], in data set [1], the negative logarithm of the IC50 (pIC50) was 6.74. For the molecule `FC(F)(F)c1cccc(CN2C(=NCCCn3ccnc3)c3cccc4cccc2c34)c1` [Example 14, N-[1-[[3-(Trifluoromethyl)phenyl]methyl]benz[cd]indol-2(1H)-ylidene]-1H-imidazole-1-propanamine], the pIC50 in data set [1] was 6.70; in data set [2] it was 5.07. As for `c1cc2c3c(cccc3c1)N(CCCN1C(=NCCCn3ccnc3)c3cccc4cccc1c34)C2=NCCCn1ccnc1` [Example 6, N,N′-[1,3-Propanediylbis(benz[cd]indol-1(2H)-yl-2-ylidene)]bis-1H-imidazole-1-propanamine], the figures for the negative logarithm of the IC50 (pIC50) in data set [1] and in data set [2] were 5.65 and below 5.00, respectively. As for `Ic1ccc2c3c(cccc13)C(NCCCCn1ccnc1)=N2` [Example 2, N-[4-(1H-Imidazol-1-yl)-butyl]-6-iodo-benz[cd]indol-2-amine], in data set [1], the negative-log IC50 (pIC50) is 5.17.

On to `c1cncc(CN2C(=NCCCn3ccnc3)c3cccc4cccc2c34)c1` [Example 9, N-[1-(3-Pyridinylmethyl)benz[cd]indol-2(1H)-ylidene]-1H-imidazole-1-propanamine], for which the results for the negative logarithm of the IC50 (pIC50) in data set [1] and in data set [2] were 5.70 and below 5.00, respectively.

Consider `c1ccc(N2C(=NCCCn3ccnc3)c3cccc4cccc2c34)cc1` [Example 16, N-(1-Phenylbenz[cd]indol-2(1H)-ylidene)-1H-imidazole-1-propanamine], for which the values for the negative-log IC50 (pIC50) in data set [1] and in data set [2] were 5.60 and below 5.00, respectively. `c1ccc(OCCCN2C(=NCCCn3ccnc3)c3cccc4cccc2c34)cc1` [Example 12, N-[1-(3-Phenoxypropyl)benz[cd]indol-2-(1H)-ylidene]-1H-imidazole-1-propanamine, Dihydrochloride] had a pIC50 in data set [1] of 5.82. Consider “N-(1-Hexylbenz[cd]indol-2(1H)-ylidene)-3-pyridinebutanamine, Fumarate (2:3) [Example 8]”, for which the pIC50 is 5.62 in data set [1] and below 5.00 in data set [2].

With `CN1C(=NCCCn2ccnc2)c2cccc3c(CO)ccc1c23` [Example 3, 1,2-Dihydro-2-[[3-(1H-imidazol-1-yl)propyl]imino]-1-methyl-benz[cd]indole-6-methanol, Fumarate (1:1)], the pIC50 in data set [1] was 5.60; in data set [2], below 5.00. With `Ic1ccc2c3c(cccc13)C(=NCc1ccccc1)N2` [Example 22, N-Benzyl-N-(6-iodobenzo[cd]indol-2(1H)-ylidene)amine], the melting point was 160 to 163 °C.

As to `Clc1ccc2c3c(cccc13)C(=NCCCn1ccnc1)N2Cc1ccccc1` [Example 18, N-[6-Chloro-1-(phenyl-methyl)benz[cd]indol-2(1H)-ylidene]-1H-imidazole-1-propanamine], the negative logarithm of the IC50 (pIC50) in data set [1] was 6.10; in data set [2], below 5.00. Consider `Clc1ccc(CN2C(=NCCCn3ccnc3)c3cccc4c(I)ccc2c34)cc1` [Example 20, N-(1-(4-Chlorobenzyl)-6-iodobenzo[cd]indol-2-(1H)-ylidene)-3-(1H-imidazol-1-yl)-1-propanamine], for which, in data set [1], the negative-log IC50 (pIC50) was 6.05. `c1ccc(CN2C(=NCCCn3ccnc3)c3cccc4cccc2c34)cc1` [Example 10, N-[1-(Phenylmethyl)benz[cd]indol-2(1H)-ylidene]-1H-imidazole-1-propanamine, Fumarate (1:2)] showed a pIC50 in data set [1] of 6.19. In the case of `N#CCCCCN1C(=NCCCn2ccnc2)c2cccc3cccc1c23` [Example 5, 2-[[3-(1H-Imidazol-1-yl)propyl]imino]-benz[cd]indole-1(2H)-pentanenitrile], the pIC50 is 6.49 in data set [1] and 5.32 in data set [2]. Regarding `c1cc2c3c(cccc3c1)C(N1CCC(Cn3ccnc3)CC1)=N2` [Example 17, 2-[4-(1H-Imidazol-1-ylmethyl)-1-piperidinyl]-benz[cd]indole, Monohydriodide], the pIC50 in data set [1] was 5.70; in data set [2], below 5.00. On the same counts, the results for `COc1cccc(CN2C(=NCCCn3ccnc3)c3cccc4cccc2c34)c1` [Example 13, N-[1-[(3-Methoxyphenyl)methyl]benz[cd]indol-2(1H)-ylidene]-1H-imidazole-1-propanamine] are 6.40 and below 5.00. As to `c1ccc(CN2C(=NCCCCn3ccnc3)c3cccc4cccc2c34)cc1` [Example 4, N-[1-(Phenylmethyl)benz[cd]indol-2(1H)-ylidene]-1H-imidazole-1-butanamine, Fumarate (1:2)], the figures for the negative logarithm of the IC50 (pIC50) in data set [1] and in data set [2] were 5.55 and below 5.00, respectively.

As to `CCCCCCCCN(CCCn1ccnc1)C1=Nc2cccc3cccc1c23` [Example 1, N-[3-(1H-Imidazol-1-yl)-propyl]-N-octyl-benz[cd]indol-2-amine, Fumarate (1:2)], the negative-log IC50 (pIC50) in data set [1] was 5.92; in data set [2], 5.10.
